According to US4313956A, “Novel sypathomimetic amine prodrugs” (INTERx Research Corp., priority 1979, dated 1982):
Values joined by “and” are separate entries in the source; they are usually repeats but may differ in a detail not shown here. Equal values may be shown once.

Assays:
psoriatic response = conditions: concentrations comparable to 3×10^-2 M; cited from earlier work
[1] = system: burn response of the right ear of female Sprague-Dawley rats; assay: Ear Burn Test (anti-inflammatory activity, ear burn model); format: in vivo; conditions: for mean (-x) of Δ %, % increase in thickness of the treated ear: group mean; for R ear (thickness of burned, treated ear) / Δ %, % increase in thickness of the treated ear: individual rats; for % inhibition of control response / % inhibition of control response (negative = inflammatory): 50 μl/burned ear, vehicle 90% acetone, 10% IPM, 16-18 hours; for % inhibition of control response (negative = inflammatory): 3 × 10^-2 M
Experimental: The anti-inflammatory activity of dipivalyloxymethylepinephrine (DDME), a novel prodrug according to this invention, was determined in an ear burn model vis-a-vis the known epinephrine prodrug, dipivalylepinephrine (DPE). Three different ear burn experiments were carried out, each experiment developing a comparison at two different drug dosages.
A controlled thermal challenge was administered to the right ear of female Sprague-Dawley rats, 40-60 g. […] Pressure applied during the 21 second burn administration was ca. 640 g/cm^2. Two groups, with and without application of vehicle (90% acetone, 10% isopropyl-myristate) served as controls. Vehicle with or without drug was applied to the right ear immediately after burning in the amount of […]. Rats were killed by cervical disclocation 16-18 hours after treatment and the thickness of each ear was determined with a micrometer (in inches ×10^3). Burn response values were normalized by expression of the % increase in thickness of the treated ear, i.e., [formula] The vehicle-treated control group was considered to be the maximum burn response within any given experiment. Inhibition or reversal of the burn response due to drug treatment is expressed as a percentage of the control response.

[2] = 0.00001 M, n = 8, control/vehicle 44.6%
[3] = 0.0001 M, n = 8, control/vehicle 44.6%
[4] = .00003 M, control/vehicle 40.2 ± 12.6
[5] = .0003 M, control/vehicle 40.2 ± 12.6
[6] = .003 M, control/vehicle 32.5 ± 8.9
[7] = .03 M, control/vehicle 32.5 ± 8.9

Row | SMILES | mean (-x) of Δ %, % increase in thickness of the treated ear [1, 2] [%] | R ear (thickness of burned, treated ear) ([1]; 0.00001 M) | Δ %, % increase in thickness of the treated ear ([1]; 0.00001 M) | mean (-x) of Δ %, % increase in thickness of the treated ear [1, 3] [%] | R ear (thickness of burned, treated ear) ([1]; 0.0001 M) | Δ %, % increase in thickness of the treated ear ([1]; 0.0001 M) | % inhibition of control response ([1]; 1 × 10^-4 M) [%] | % inhibition of control response ([1]; 1 × 10^-5 M) [%] | % inhibition of control response (negative = inflammatory) [1] [%] | % inhibition of control response ([1]; 3 × 10^-3 M) [%] | % inhibition of control response ([1]; 3 × 10^-4 M) [%] | % inhibition of control response ([1]; 3 × 10^-5 M) [%] | mean (-x) of Δ %, % increase in thickness of the treated ear [1, 4] [%] | R ear (thickness of burned, treated ear) ([1]; .00003 M) | Δ %, % increase in thickness of the treated ear ([1]; .00003 M) | mean (-x) of Δ %, % increase in thickness of the treated ear [1, 5] [%] | R ear (thickness of burned, treated ear) ([1]; .0003 M) | Δ %, % increase in thickness of the treated ear ([1]; .0003 M) | mean (-x) of Δ %, % increase in thickness of the treated ear [1, 6] [%] | R ear (thickness of burned, treated ear) ([1]; .003 M) | also measured
1 | CNCC(O)c1ccc(OC(=O)C(C)(C)C)c(OC(=O)C(C)(C)C)c1 (stereo not drawn) [DPE, dipivalylepinephrine] | 33.3 | 17.8 inches ×10^3 and 15.7 inches ×10^3 and 16.2 inches ×10^3 and 18.1 inches ×10^3 and 16.1 inches ×10^3 and 14.5 inches ×10^3 and 18.3 inches ×10^3 | 41.3% and 26.6% and 24.6% and 29.8% and 46.0% and 26.8% and 25.0% and 46.4% | 34.4 | 15.9 inches ×10^3 and 17.3 inches ×10^3 and 17.4 inches ×10^3 and 18.3 inches ×10^3 and 16.6 inches ×10^3 and 15.8 inches ×10^3 and 16.4 inches ×10^3 and 17.2 inches ×10^3 | 31.4% and 35.2% and 35.9% and 48.8% and 32.8% and 26.4% and 27.1% and 37.6% | 22.9 | 25.3 | -21.5 | 8 | 31.3 | 19.7 | 32.3 ± 5.2 | 16.4 inches ×10^3 and 18.2 inches ×10^3 and 17.5 inches ×10^3 and 18.1 inches ×10^3 and 16.8 inches ×10^3 and 18.5 inches ×10^3 and 14.5 inches ×10^3 and 16.0 inches ×10^3 | 29.1% and 32.8% and 31.6% and 40.3% and 36.6% and 37.0% and 22.9% and 30.1% | 27.6 ± 6.9 | 15.8 inches ×10^3 and 16.4 inches ×10^3 and 18.0 inches ×10^3 and 18.3 inches ×10^3 and 17.7 inches ×10^3 and 16.6 inches ×10^3 and 15.2 inches ×10^3 and 16.2 inches ×10^3 | 27.4% and 26.2% and 27.7% and 35.6% and 34.1% and 12.6% and 29.6% | 29.9 ± 10.8 | 18.6 inches ×10^3 and 19.6 inches ×10^3 and 19.8 inches ×10^3 and 16.7 inches ×10^3 and 16.5 inches ×10^3 and 17.1 inches ×10^3 and 13.4 inches ×10^3 and 17.2 inches ×10^3 | psoriatic response in clinical observations (psoriatic response): a psoriatic response was often observed; Δ %, % increase in thickness of the treated ear ([1]; .003 M): 39.8% and 41.0% and 43.5% and 21.9% and 23.1% and 29.5% and 12.6% and 27.4%; mean (-x) of Δ %, % increase in thickness of the treated ear [1, 7]: 39.5 ± 11.4%; R ear (thickness of burned, treated ear) ([1]; .03 M): 17.5 inches ×10^3 and 21.3 inches ×10^3 and 18.1 inches ×10^3 and 18.5 inches ×10^3 and 20.0 inches ×10^3 and 17.4 inches ×10^3 and 15.7 inches ×10^3 and 18.3 inches ×10^3; Δ %, % increase in thickness of the treated ear ([1]; .03 M): 32.6% and 56.6% and 43.7% and 37.0% and 52.7% and 28.9% and 23.6% and 40.8%
2 | CNCC(O)c1ccc(OCOC(=O)C(C)(C)C)c(OCOC(=O)C(C)(C)C)c1 (stereo not drawn) [DPME, dipivalyloxymethylepinephrine] | 30.5 | 16.3 inches ×10^3 and 16.5 inches ×10^3 and 13.8 inches ×10^3 and 14.1 inches ×10^3 and 17.0 inches ×10^3 and 14.7 inches ×10^3 and 17.8 inches ×10^3 and 16.8 inches ×10^3 | 30.4% and 35.2% and 16.9% and 22.6% and 41.7% and 20.5% and 40.2% and 36.6% | 23.0 | 14.0 inches ×10^3 and 14.7 inches ×10^3 and 13.6 inches ×10^3 and 14.5 inches ×10^3 and 15.4 inches ×10^3 and 14.9 inches ×10^3 and 15.3 inches ×10^3 | 18.6% and 23.5% and 12.4% and 21.8% and 31.6% and 22.5% and 26.3% and 27.5% | 48.4 | 31.6 | -32.6 | 8 | 41.3 | 30.6 | 27.9 ± 6.2 | 15.3 inches ×10^3 and 17.8 inches ×10^3 and 16.6 inches ×10^3 and 16.3 inches ×10^3 and 15.5 inches ×10^3 and 15.4 inches ×10^3 and 16.9 inches ×10^3 | 17.7% and 38.0% and 31.7% and 25.4% and 26.0% and 24.2% and 32.8% and 27.0% | 23.6 ± 7.9 | 17.7 inches ×10^3 and 16.4 inches ×10^3 and 18.0 inches ×10^3 and 17.5 inches ×10^3 and 15.2 inches ×10^3 and 15.5 inches ×10^3 and 15.0 inches ×10^3 and 14.8 inches ×10^3 | 22.1% and 17.1% and 38.5% and 31.6% and 22.6% and 24.0% and 17.2% and 15.6% | 29.9 ± 12.2 | 19.9 inches ×10^3 and 15.1 inches ×10^3 and 18.1 inches ×10^3 and 17.0 inches ×10^3 and 17.1 inches ×10^3 and 15.2 inches ×10^3 and 14.0 inches ×10^3 and 16.9 inches ×10^3 | Δ %, % increase in thickness of the treated ear ([1]; .003 M): 45.3% and 21.8% and 42.5% and 26.9% and 41.3% and 17.8% and 12.9% and 31.0%; mean (-x) of Δ %, % increase in thickness of the treated ear [1, 7]: 43.1 ± 12.4%; R ear (thickness of burned, treated ear) ([1]; .03 M): 18.4 inches ×10^3 and 16.9 inches ×10^3 and 20.7 inches ×10^3 and 18.2 inches ×10^3 and 19.3 inches ×10^3 and 20.9 inches ×10^3 and 19.0 inches ×10^3; Δ %, % increase in thickness of the treated ear ([1]; .03 M): 36.3% and 30.0% and 47.9% and 43.0% and 64.6% and 49.6%; anti-inflammatory effect compared with DPE ([1]; low concentration levels): consistently elicits a greater anti-inflammatory effect than DPE; more effective as an anti-inflammatory agent from a dosage standpoint ([1]; versus DPE, dose response profiles at low concentrations): 10-30 fold
